According to article PMC6600263, “Neuroprotective Effects of Red Ginseng Saponins in Scopolamine-Treated Rats and Activity Screening Based on Pharmacokinetics” (Molecules, 2019):
Where two headings read alike, the source gives them in different places.

Tests used:
[1] = pharmacokinetics of 16 ginsenosides in rat plasma after oral administration of RGS; format: in vivo; details: for Cmax / MRT / half-life / Tmax / C Max / T1/2 / T Max: SD, rat, po, 100 mg/kg
Protocol: The SD rats were randomly allocated into two groups, i.e., normal group and SA-treated group.
Blood samples were collected from the postocular vein at 0.083, 0.25, 0.5, 1, 2, 3, 4, 6, 8, 12 and 24 h after SA injection. Blood sample immediately was centrifuged at 18,000 rpm for 10 min. Plasma was withdrawn (0.15 mL) and diluted with 0.3 mL of acetonitrile and 20 µL of the IS (6 µg/mL). After 30 min, the mixture was clarified by centrifugation at 18,000 rpm for 10 min at 4 °C. The supernatant was dried under a stream of N2, and the residue was dissolved in 0.1 mL of methanol and stored at −20 °C for further analysis.
The UPLC-MS/MS system (Waters Xeve TQ, Waters, Cork, Ireland) with a column C18 (ACQUITY, 1.7 μm, 2.1 × 50 mm, Waters, Cork, Ireland) were adopted at 35 °C. Water (A) and acetonitrile (B) were used as mobile phases at a flow rate of 0.4 mL/min. The treatment of elution was performed according to following pattern: 10% B for 0–5.0 min; 10→15% B for 5.0–8.0 min; 15→25% B for 8.0–12.0 min; 25→40% for 12.0–20.0 min; 40→50% B for 20.0–25.0 min; 50→65% B for 25.0–30.0 min. With regard to mass detection, the negative mode of electrospray ionization source was adopted. The optimized parameters of multiple reactions monitoring (MRM) system including collision energy, Q1 Pre Bias, Q3 Pre Bias, collision energy and MRM transition of the 16 ginsenosides are shown in Table 1.
Based on a non-compartmental method, WinNonlin software (Phoenix, version 6.1) was employed to calculate the pharmacokinetic parameters. The statistical difference between groups was analyzed by One-Way ANOVA analysis using SPSS Version 17.0. (SPSS Inc., Chicago, IL, USA). The difference between groups was regarded significant when p < 0.05. We first normalized the pharmacokinetic data and then visualized them based on principal component analysis (PCA).

[2] = test system: scopolamine-induced learning ability impairment; parameters: method as in PMID 24503167; details: rats; cited from earlier work
[3] = plasma, model (scopolamine 1 mg/kg i.p.-treated) rats, oral RGS single dose 100 mg/kg, plasma, mean ± S.D., n = 5, read-out: C Max
[4] = plasma, model (scopolamine 1 mg/kg i.p.-treated) rats, oral RGS single dose 100 mg/kg, plasma, mean ± S.D., n = 5, read-out: MRT
[5] = plasma, model (scopolamine 1 mg/kg i.p.-treated) rats, oral RGS single dose 100 mg/kg, plasma, mean ± S.D., n = 5, read-out: T1/2 (converted)
[6] = plasma, model (scopolamine 1 mg/kg i.p.-treated) rats, oral RGS single dose 100 mg/kg, plasma, mean ± S.D., n = 5, read-out: T Max
[7] = plasma, normal rats, oral RGS single dose 100 mg/kg, plasma, mean ± S.D., n = 5, read-out: C Max
[8] = plasma, normal rats, oral RGS single dose 100 mg/kg, plasma, mean ± S.D., n = 5, read-out: MRT
[9] = plasma, normal rats, oral RGS single dose 100 mg/kg, plasma, mean ± S.D., n = 5, read-out: T1/2 (converted)
[10] = plasma, normal rats, oral RGS single dose 100 mg/kg, plasma, mean ± S.D., n = 5, read-out: T Max
[11] = model (scopolamine 1 mg/kg i.p.-treated) rats, oral RGS single dose 100 mg/kg, plasma, mean ± S.D., n = 5
[12] = normal rats, oral RGS single dose 100 mg/kg, plasma, mean ± S.D., n = 5
[13] = in vivo, model (scopolamine 1 mg/kg i.p.-treated) rats, oral RGS single dose 100 mg/kg, plasma, mean ± S.D., n = 5, read-out: C Max
[14] = in vivo, model (scopolamine 1 mg/kg i.p.-treated) rats, oral RGS single dose 100 mg/kg, plasma, mean ± S.D., n = 5, read-out: MRT
[15] = in vivo, model (scopolamine 1 mg/kg i.p.-treated) rats, oral RGS single dose 100 mg/kg, plasma, mean ± S.D., n = 5, read-out: T1/2 (converted)
[16] = in vivo, model (scopolamine 1 mg/kg i.p.-treated) rats, oral RGS single dose 100 mg/kg, plasma, mean ± S.D., n = 5, read-out: T Max
[17] = in vivo, normal rats, oral RGS single dose 100 mg/kg, plasma, mean ± S.D., n = 5, read-out: C Max
[18] = in vivo, normal rats, oral RGS single dose 100 mg/kg, plasma, mean ± S.D., n = 5, read-out: MRT
[19] = in vivo, normal rats, oral RGS single dose 100 mg/kg, plasma, mean ± S.D., n = 5, read-out: T1/2 (converted)
[20] = in vivo, normal rats, oral RGS single dose 100 mg/kg, plasma, mean ± S.D., n = 5, read-out: T Max

SMILES	Cmax [1, 3] [ng/g]	MRT [1, 4] [h]	half-life [1, 5] [h]	Tmax [1, 6] [h]	Cmax [1, 7] [ng/g]	MRT [1, 8] [h]	half-life [1, 9] [h]	Tmax [1, 10] [h]	AUC 0-t [1, 11] [ng·h/g]	AUC 0-t [1, 12] [ng·h/g]	C Max ([1]; in vivo) [ng/g]	MRT ([1]; in vivo) [h]	T1/2 ([1]; in vivo) [h]	Cmax ([1]; in vivo, C Max) [ng/g]	MRT ([1]; in vivo, MRT) [h]	half-life ([1]; in vivo, T1/2) [h]	other results
CC(C)=CCCC(C)(OC1OC(COC2OC(CO)C(O)C(O)C2O)C(O)C(O)C1O)C1CCC2(C)C1C(O)CC1C3(C)CCC(OC4OC(CO)C(O)C(O)C4OC4OC(CO)C(O)C(O)C4O)C(C)(C)C3CCC12C (centres unmarked) [Rb1]	34.8 ± 2.7	6.5 ± 1.5	4.8 ± 1.1	4.1 ± 0.8	35.2 ± 4.9	6.2 ± 1.8	4.3 ± 0.8	4.6 ± 1.1	298.9 ± 11.7	255.6 ± 7.4	–	–	–	–	–	–	effect on scopolamine-induced learning ability impairment [2]: do not
CC(C)=CCCC(C)(OC1OC(COC2OCC(O)C(O)C2O)C(O)C(O)C1O)C1CCC2(C)C1C(O)CC1C3(C)CCC(OC4OC(CO)C(O)C(O)C4OC4OC(CO)C(O)C(O)C4O)C(C)(C)C3CCC12C (centres unmarked) [Rb2]	17.2 ± 2.1	7.9 ± 1.2	6.9 ± 1.2	1.5 ± 0.2	18.5 ± 2.5	8.6 ± 2.1	6.5 ± 1.5	1.5 ± 0.2	90.3 ± 8.2	89.6 ± 9.3	–	–	–	–	–	–	–
CC(C)=CCCC(C)(OC1OC(COC2OC(CO)C(O)C2O)C(O)C(O)C1O)C1CCC2(C)C1C(O)CC1C3(C)CCC(OC4OC(CO)C(O)C(O)C4OC4OC(CO)C(O)C(O)C4O)C(C)(C)C3CCC12C (centres unmarked) [Rc]	21 ± 4.8	8.9 ± 2.2	7.9 ± 3.1	1.5 ± 0.5	19.1 ± 2.9	9.6 ± 1.5	8.9 ± 3.2	1.5 ± 3.2	109.8 ± 10.2	102.3 ± 20.2	–	–	–	–	–	–	–
CC(C)=CCCC(C)(OC1OC(CO)C(O)C(O)C1O)C1CCC2(C)C1C(O)CC1C3(C)CCC(OC4OC(CO)C(O)C(O)C4OC4OC(CO)C(O)C(O)C4O)C(C)(C)C3CCC12C (centres unmarked) [Rd]	45.6 ± 2.9	7.7 ± 1.3	6.2 ± 1.9	2 ± 0.8	47.5 ± 2.6	8.6 ± 1.2	5.5 ± 5.6	1.5 ± 0.4	331.2 ± 11.2	321.5 ± 9.1	–	–	–	–	–	–	effect on scopolamine-induced learning ability impairment [2]: do not
CC(C)=CCCC(C)(OC1OC(CO)C(O)C(O)C1O)C1CCC2(C)C1C(O)CC1C3(C)CCC(O)C(C)(C)C3C(OC3OC(CO)C(O)C(O)C3OC3OC(C)C(O)C(O)C3O)CC12C (centres unmarked) [Re]	24.9 ± 6.9	8.6 ± 1.1	11.3 ± 2.9	0.5 ± 0.1	25.6 ± 2.6	9.6 ± 1.2	12.3 ± 2.6	0.5 ± 0.4	298.6 ± 21.2	278.3 ± 9.1	–	–	–	–	–	–	–
CC(C)=CCCC(C)(O)C1CCC2(C)C1C(O)CC1C3(C)CCC(O)C(C)(C)C3C(OC3OC(CO)C(O)C(O)C3OC3OC(CO)C(O)C(O)C3O)CC12C (centres unmarked) [Rf]	–	–	–	–	–	–	–	–	–	–	18.8 ± 2.6	7.4 ± 1.3	7.5 ± 1.5	17.6 ± 5.9	6.5 ± 1.2	6.6 ± 1.2	Tmax ([1]; in vivo, T Max): 2 ± 0.6 h
CC(C)=CCCC(C)(O)C1CCC2(C)C1C(O)CC1C3(C)CCC(OC4OC(CO)C(O)C(O)C4OC4OC(CO)C(O)C(O)C4O)C(C)(C)C3CCC12C (centres unmarked) [Rg3]	–	–	–	–	–	–	–	–	–	–	32.3 ± 4.6	22.5 ± 2.1	19.8 ± 1.5	29.6 ± 5.9	24.3 ± 1.2	21.3 ± 2.2	–
CC(C)=CCC=C(C)C1CCC2(C)C1C(O)CC1C3(C)CCC(OC4OC(CO)C(O)C(O)C4OC4OC(CO)C(O)C(O)C4O)C(C)(C)C3CCC12C (centres unmarked) [Rg5]	37.3 ± 2.8	25.6 ± 2.6	27.3 ± 3.6	8 ± 1.6	34.4 ± 2.6	22.2 ± 1.4	17.1 ± 2.5	4 ± 1.8	569.8 ± 10.2	415.6 ± 20.1	–	–	–	–	–	–	–
CC(C)=CCCC(C)(O)C1CCC2(C)C1C(O)CC1C3(C)CCC(O)C(C)(C)C3C(OC3OC(CO)C(O)C(O)C3O)CC12C (centres unmarked) [Rh1]	–	–	–	–	–	–	–	–	278.6 ± 12.8	215.5 ± 12.1	–	–	–	–	–	–	Cmax [1, 13]: 46.9 ± 7.8 ng/g; MRT [1, 14]: 11.2 ± 2 h; half-life [1, 15]: 8.9 ± 2.1 h; Tmax [1, 16]: 1.5 ± 0.3 h; Cmax [1, 17]: 41.2 ± 4.6 ng/g; MRT [1, 18]: 9.6 ± 2.1 h; half-life [1, 19]: 9.8 ± 2.5 h; Tmax [1, 20]: 1 ± 0.5 h
CC(C)=CCCC(C)(O)C1CCC2(C)C1C(O)CC1C3(C)CCC(OC4OC(CO)C(O)C(O)C4O)C(C)(C)C3CCC12C (centres unmarked) [Rh2]	–	–	–	–	–	–	–	–	369.8 ± 8.0	356.8 ± 12.8	–	–	–	–	–	–	Cmax [1, 13]: 30.2 ± 4.8 ng/g; MRT [1, 14]: 11.8 ± 2 h; half-life [1, 15]: 7.6 ± 2.1 h; Tmax [1, 16]: 2 ± 0.3 h; Cmax [1, 17]: 26.9 ± 2.6 ng/g; MRT [1, 18]: 12.3 ± 2.1 h; half-life [1, 19]: 9.8 ± 2.5 h; Tmax [1, 20]: 2 ± 0.5 h
CC(C)=CCC=C(C)C1CCC2(C)C1C(O)CC1C3(C)CCC(OC4OC(CO)C(O)C(O)C4O)C(C)(C)C3CCC12C (centres unmarked) [Rh3]	–	–	–	–	–	–	–	–	–	–	37.6 ± 4.8	19.8 ± 2.8	13.6 ± 3.1	24.3 ± 3.9	15.6 ± 3.5	12.6 ± 3.2	T Max ([1]; in vivo): 10.2 ± 1.5 h; Tmax ([1]; in vivo, T Max): 14.4 ± 1.2 h
CC(C)=CCC=C(C)C1CCC2(C)C1C(O)CC1C3(C)CCC(O)C(C)(C)C3C(OC3OC(CO)C(O)C(O)C3O)CC12C (centres unmarked) [Rh4]	–	–	–	–	–	–	–	–	–	–	38.7 ± 4.8	12.3 ± 2.0	9.9 ± 2.1	35.6 ± 3.6	11.2 ± 2.1	8.8 ± 1.5	Tmax ([1]; in vivo, T Max): 4 ± 0.5 h
C=C(CCC=C(C)C)C1CCC2(C)C1C(O)CC1C3(C)CCC(OC4OC(CO)C(O)C(O)C4OC4OC(CO)C(O)C(O)C4O)C(C)(C)C3CCC12C (centres unmarked) [Rk1]	50.1 ± 3.7	26.8 ± 2.5	29.3 ± 2.1	6 ± 0.8	32.1 ± 5.9	21.3 ± 1.8	18.1 ± 9.8	6 ± 0.9	736.8 ± 17.7	556.8 ± 13.4	–	–	–	–	–	–	–
C=C(CCC=C(C)C)C1CCC2(C)C1C(O)CC1C3(C)CCC(O)C(C)(C)C3C(OC3OC(CO)C(O)C(O)C3O)CC12C (centres unmarked) [Rk3]	–	–	–	–	–	–	–	–	–	–	16.6 ± 2.8	8.9 ± 1.8	6.9 ± 2.1	14.2 ± 3.9	9.6 ± 1.5	6.5 ± 0.9	T Max ([1]; in vivo): 1.5 ± 0.5 h; Tmax ([1]; in vivo, T Max): 1 ± 0.2 h
